We go through 8 molecules from ChEMBL document CHEMBL5620353, “Novel antifungal triazoles with alkynyl-methoxyl side chains: Design, synthesis, and biological activity evaluation” (Eur J Med Chem, 2023).

What all share (assay type): functional
In assay [1] the test system is Candida albicans. Put plainly: Antifungal activity against Candida albicans SC5314 assessed as inhibition of fungal growth incubated for 48 hrs by microbroth dilution method.
In assay [2] the test system is Candida albicans. Put plainly: Antifungal activity against Candida albicans 10231 assessed as inhibition of fungal growth incubated for 48 hrs by microbroth dilution method.
Assay [3] relates to Nakaseomyces glabratus. Nature of the assay: Antifungal activity against Candida glabrata 537 assessed as inhibition of fungal growth incubated for 48 hrs by microbroth dilution method.
The subject of the next assay is Candida parapsilosis. Put plainly: Antifungal activity against Candida parapsilosis 22019 assessed as inhibition of fungal growth incubated for 48 hrs by microbroth dilution method. The settings on record: Lodderomyces parapsilosis.
The next assay concerns Pichia kudriavzevii. Put plainly: Antifungal activity against Candida krusei 4996 assessed as inhibition of fungal growth incubated for 48 hrs by microbroth dilution method.
Another assay deals with Candida tropicalis. Put plainly: Antifungal activity against Candida tropicalis 8915 assessed as inhibition of fungal growth incubated for 48 hrs by microbroth dilution method.
The next assay relates to Cryptococcus neoformans. Put plainly: Antifungal activity against Cryptococcus neoformans 32,609 assessed as inhibition of fungal growth incubated for 72 hrs by microbroth dilution method.
The subject of a further assay is Aspergillus fumigatus. Nature of the assay: Antifungal activity against Aspergillus fumigatus 7544 assessed as inhibition of fungal growth incubated for 72 hrs by microbroth dilution method.
Assay [4] concerns Nakaseomyces glabratus. Nature of the assay: Potency index, ratio of fluconazole MIC to test compound MIC for antifungal activity against Candida glabrata 537 assessed as inhibition of fungal growth incubated for 48 hrs by microbroth dilution method.
For assay [5], the system named is Saccharomyces cerevisiae. Nature of the assay: Antifungal activity against recombinant Saccharomyces cerevisiae Y525 overexpressing CaMdr1 assessed as inhibition of fungal growth incubated for 48 hrs by microbroth dilution method.
For assay [6], the system named is Saccharomyces cerevisiae. Put plainly: Antifungal activity against recombinant Saccharomyces cerevisiae Y570 overexpressing CaCdr1 assessed as inhibition of fungal growth incubated for 48 hrs by microbroth dilution method.
The test system of assay [7] is Saccharomyces cerevisiae. Nature of the assay: Antifungal activity against recombinant Saccharomyces cerevisiae Y2411 overexpressing ScErg11 assessed as inhibition of fungal growth incubated for 48 hrs by microbroth dilution method.
Assay [8] deals with Saccharomyces cerevisiae. Nature of the assay: Antifungal activity against recombinant Saccharomyces cerevisiae Y2300 overexpressing ScErg11 assessed as inhibition of fungal growth incubated for 48 hrs by microbroth dilution method.
Assay [9] concerns Saccharomyces cerevisiae. Nature of the assay: Antifungal activity against recombinant Saccharomyces cerevisiae Y2301 overexpressing ScErg11 Y140F assessed as inhibition of fungal growth incubated for 48 hrs by microbroth dilution method.
Assay [10] deals with Saccharomyces cerevisiae. Nature of the assay: Antifungal activity against recombinant Saccharomyces cerevisiae Y2513 overexpressing ScErg11 Y140H assessed as inhibition of fungal growth incubated for 48 hrs by microbroth dilution method.
Assay [11] relates to Saccharomyces cerevisiae. Nature of the assay: Antifungal activity against recombinant Saccharomyces cerevisiae Y2374 overexpressing CgErg11 assessed as inhibition of fungal growth incubated for 48 hrs by microbroth dilution method.
Assay [12] relates to Saccharomyces cerevisiae. Put plainly: Antifungal activity against recombinant Saccharomyces cerevisiae Y2462 overexpressing ScErg11 ScNcp1 assessed as inhibition of fungal growth incubated for 48 hrs by microbroth dilution method.
Assay [13] deals with Saccharomyces cerevisiae. Nature of the assay: Antifungal activity against recombinant Saccharomyces cerevisiae Y2459 overexpressing CaErg11 CaCpr assessed as inhibition of fungal growth incubated for 48 hrs by microbroth dilution method.
Assay [14] concerns Saccharomyces cerevisiae. Put plainly: Antifungal activity against recombinant Saccharomyces cerevisiae Y2721 overexpressing CpErg11 CpCpr assessed as inhibition of fungal growth incubated for 48 hrs by microbroth dilution method.
Assay [15] concerns Saccharomyces cerevisiae. Nature of the assay: Antifungal activity against recombinant Saccharomyces cerevisiae Y2716 overexpressing CpErg11 Y132F CpCpr assessed as inhibition of fungal growth incubated for 48 hrs by microbroth dilution method.
Assay [16] has as its system Candida albicans. Put plainly: Antifungal activity against fluconazole-resistant Candida albicans 901 assessed as inhibition of fungal growth incubated for 48 hrs by microbroth dilution method.
Assay [17] concerns Candida albicans. Put plainly: Antifungal activity against fluconazole-resistant Candida albicans 904 assessed as inhibition of fungal growth incubated for 48 hrs by microbroth dilution method.
Assay [18] concerns [Candida] auris. Nature of the assay: Antifungal activity against fluconazole-resistant Candida auris 891 assessed as inhibition of fungal growth incubated for 48 hrs by microbroth dilution method. The settings on record: Candidozyma auris.
In assay [19] the test system is [Candida] auris. Nature of the assay: Antifungal activity against fluconazole-resistant Candida auris 918 assessed as inhibition of fungal growth incubated for 48 hrs by microbroth dilution method. The settings on record: Candidozyma auris.
Assay [20] concerns [Candida] auris. Nature of the assay: Antifungal activity against fluconazole-resistant Candida auris 919 assessed as inhibition of fungal growth incubated for 48 hrs by microbroth dilution method. The following applies: Candidozyma auris.

Converted amounts (≈) assume the structure as drawn.

Consider `C[C@@H](OCC#Cc1c(Cl)cc(Cl)cc1Cl)[C@](O)(Cn1cncn1)c1ccc(F)cc1F`, for which the MIC is 1 µg/mL (≈ 2.05 µM) with Candida albicans [1]; more than 64 µg/mL in the assay with Candida albicans [2]; not above 0.125 µg/mL in the assay with Nakaseomyces glabratus [3]; 2 µg/mL (≈ 4.11 µM) in the assay with Candida parapsilosis; 16 µg/mL (≈ 32.9 µM) in the assay with Pichia kudriavzevii; 64 µg/mL (≈ 131 µM) in the assay with Candida tropicalis. Further, the results for the MIC in the assay with Cryptococcus neoformans and in the assay with Aspergillus fumigatus were 0.5 µg/mL (≈ 1.03 µM) and 2 µg/mL (≈ 4.11 µM), respectively. Further, in the assay on Nakaseomyces glabratus [4], the Ratio entry was “>=8”.

Consider `CC[C@@H]([C@H](C)O)n1ncn(-c2ccc(N3CCN(c4ccc(OC[C@@H]5CO[C@@](Cn6cncn6)(c6ccc(F)cc6F)C5)cc4)CC3)cc2)c1=O` [POSACONAZOLE], for which the MIC with Saccharomyces cerevisiae [5] stood at 1 µg/mL; in the assay with Saccharomyces cerevisiae [6] it was 16 µg/mL; with Saccharomyces cerevisiae [7], 0.5 µg/mL; in the assay on Saccharomyces cerevisiae [8], 2 µg/mL; in the assay with Saccharomyces cerevisiae [9], 2 µg/mL; in the assay with Saccharomyces cerevisiae [10], 1 µg/mL. The MIC in the assay with Saccharomyces cerevisiae [11] was determined as 1 µg/mL; in the assay with Saccharomyces cerevisiae [12], 2 µg/mL; in the assay on Saccharomyces cerevisiae [13] it was 2 µg/mL; with Saccharomyces cerevisiae [14] it was 1 µg/mL; in the assay on Saccharomyces cerevisiae [15] it was 1 µg/mL.

Consider `C[C@@H](OCC#Cc1ccc(Cl)cc1Cl)[C@](O)(Cn1cncn1)c1ccc(F)cc1F`, for which the MIC was not above 0.125 µg/mL with Candida albicans [1]; 32 µg/mL (≈ 70.8 µM) in the assay on Candida albicans [2]; 0.25 µg/mL (≈ 0.553 µM) in the assay on Nakaseomyces glabratus [3]; 4 µg/mL (≈ 8.84 µM) in the assay with Candida parapsilosis; 32 µg/mL (≈ 70.8 µM) in the assay with Pichia kudriavzevii; 32 µg/mL (≈ 70.8 µM) with Candida tropicalis. Further, the MIC came to 2 µg/mL (≈ 4.42 µM) in the assay with Cryptococcus neoformans; 4 µg/mL (≈ 8.84 µM) in the assay with Aspergillus fumigatus; 64 µg/mL (≈ 142 µM) with Candida albicans [16]; 32 µg/mL (≈ 70.8 µM) in the assay on Candida albicans [17]; 32 µg/mL (≈ 70.8 µM) in [Candida] auris [18]; 16 µg/mL (≈ 35.4 µM) in [Candida] auris [19]. Moreover, the MIC in assay [Candida] auris [20] came to 8 µg/mL (≈ 17.7 µM).

In the case of `C[C@@H](OCC#Cc1ccccc1)[C@](O)(Cn1cncn1)c1ccc(F)cc1F`, the MIC was not above 0.125 µg/mL with Candida albicans [1]; 8 µg/mL (≈ 20.9 µM) in the assay on Candida albicans [2]; not above 0.125 µg/mL in the assay with Nakaseomyces glabratus [3]; 0.5 µg/mL (≈ 1.3 µM) with Candida parapsilosis; 8 µg/mL (≈ 20.9 µM) in the assay on Pichia kudriavzevii; 32 µg/mL (≈ 83.5 µM) with Candida tropicalis. Besides, the MIC in the assay with Cryptococcus neoformans was 0.5 µg/mL (≈ 1.3 µM); in the assay on Aspergillus fumigatus, 4 µg/mL (≈ 10.4 µM). For the same molecule, the Ratio result with Nakaseomyces glabratus [4] is on record as “>=8”.

For the molecule `C[C@@H](OCC#Cc1c(F)cc(F)cc1F)[C@](O)(Cn1cncn1)c1ccc(F)cc1F`, the MIC is not above 0.125 µg/mL in the assay on Candida albicans [1]; more than 64 µg/mL with Candida albicans [2]; not above 0.125 µg/mL with Nakaseomyces glabratus [3]; 2 µg/mL (≈ 4.57 µM) in the assay with Candida parapsilosis; 8 µg/mL (≈ 18.3 µM) in the assay with Pichia kudriavzevii; 64 µg/mL (≈ 146 µM) in the assay with Candida tropicalis. Besides, the MIC in the assay on Cryptococcus neoformans was determined as 0.5 µg/mL (≈ 1.14 µM); in the assay with Aspergillus fumigatus, 4 µg/mL (≈ 9.15 µM). The Ratio result with Nakaseomyces glabratus [4] was “>=8”.

As to `C[C@@H](OCC#Cc1ccc(F)cc1)[C@](O)(Cn1cncn1)c1ccc(F)cc1F`, the MIC in the assay with Candida albicans [1] is not above 0.125 µg/mL; in the assay with Candida albicans [2] it was 8 µg/mL (≈ 19.9 µM); in the assay on Nakaseomyces glabratus [3], not above 0.125 µg/mL; in the assay with Candida parapsilosis it was 1 µg/mL (≈ 2.49 µM); with Pichia kudriavzevii, 8 µg/mL (≈ 19.9 µM); in the assay with Candida tropicalis it was 64 µg/mL (≈ 159 µM). Also, the MIC was determined as 0.5 µg/mL (≈ 1.25 µM) in the assay with Cryptococcus neoformans; 1 µg/mL (≈ 2.49 µM) in the assay on Aspergillus fumigatus; 64 µg/mL (≈ 159 µM) in the assay on Candida albicans [16]; 32 µg/mL (≈ 79.7 µM) in the assay on Candida albicans [17]; 16 µg/mL (≈ 39.9 µM) in assay [Candida] auris [18]; 16 µg/mL (≈ 39.9 µM) in assay [Candida] auris [19]. For the same molecule, the MIC in assay [Candida] auris [20] was found to be 16 µg/mL (≈ 39.9 µM). In addition, the Ratio result with Nakaseomyces glabratus [4] is listed as “>=8”.

Take `C[C@@H](OCC#Cc1cccc(F)c1F)[C@](O)(Cn1cncn1)c1ccc(F)cc1F`: the MIC in the assay on Candida albicans [1] is not above 0.125 µg/mL; with Candida albicans [2], 16 µg/mL (≈ 38.2 µM); with Nakaseomyces glabratus [3], not above 0.125 µg/mL; in the assay with Candida parapsilosis it was 1 µg/mL (≈ 2.38 µM); in the assay with Pichia kudriavzevii, 8 µg/mL (≈ 19.1 µM); in the assay on Candida tropicalis, 32 µg/mL (≈ 76.3 µM). The MIC was 1 µg/mL (≈ 2.38 µM) in the assay with Cryptococcus neoformans and 8 µg/mL (≈ 19.1 µM) in the assay on Aspergillus fumigatus. Also, the Ratio entry with Nakaseomyces glabratus [4] is “>=8”.

As for `Cc1ccc(C#CCO[C@H](C)[C@](O)(Cn2cncn2)c2ccc(F)cc2F)cc1`, the minimum inhibitory concentration (MIC) was not above 0.125 µg/mL in the assay with Candida albicans [1]; 16 µg/mL (≈ 40.3 µM) in the assay on Candida albicans [2]; not above 0.125 µg/mL in the assay on Nakaseomyces glabratus [3]; 4 µg/mL (≈ 10.1 µM) in the assay with Candida parapsilosis; 32 µg/mL (≈ 80.5 µM) in the assay on Pichia kudriavzevii; 16 µg/mL (≈ 40.3 µM) with Candida tropicalis. The values for the MIC with Cryptococcus neoformans and in the assay on Aspergillus fumigatus were 2 µg/mL (≈ 5.03 µM) and 4 µg/mL (≈ 10.1 µM), respectively. Further, the Ratio entry in the assay on Nakaseomyces glabratus [4] was “>=8”.
